Values joined by “and” are separate entries in the source; they are usually repeats but may differ in a detail not shown here. Equal entries are not always repeated.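 Briefly, cells in 96-well plates were exposed to five compound concentrations for 48 h, and endpoints were estimated by linear interpolation. Abbreviation: GI50, concentration required for 50% inhibition of growth. The concentration for full growth arrest is given as TGI.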
How the values were obtained:
Test in all cases: inhibition of tumour cell growth, NCI panel, 48 h
[1] = system: OVCAR-4 ovarian
[2] = system: A549 NSCLC
[3] = system: KM12 colon
[4] = system: CCRF-CEM leukemia
[5] = system: RXF 393 renal
[6] = system: NCI-H23 lung
[7] = system: 786-0 renal
[8] = system: RPMI-8226 leukemia
[9] = system: MOLT-4 leukemia
[10] = system: MDA-MB-231 breast

N#CCC(=O)N1CCCCCCC1
TGI [1]: > 100 µM
TGI [2]: > 100 µM
TGI [3]: > 100 µM
TGI [4]: > 100 µM
TGI [5]: > 100 µM
TGI [6]: > 100 µM
TGI [7]: > 100 µM

O=c1oc2ccccc2c(O)c1C(C/C(CCN1CCCC1)=N\Nc1ccccc1)c1ccccc1 (configuration not stated)
TGI [8]: 77.7 µM
TGI [1]: > 100 µM
TGI [2]: > 100 µM
TGI [3]: > 100 µM
TGI [4]: 69.5 µM
TGI [5]: 93 µM
TGI [6]: > 100 µM
TGI [7]: > 100 µM

O=C(CCCCC(=O)N/N=C\c1ccccc1O)N/N=C\c1ccccc1O
GI50 [1]: 1.73 µM
TGI [1]: > 100 µM
GI50 [9]: 3.01 µM
TGI [9]: > 100 µM
GI50 [10]: 1.9 µM
TGI [10]: 57.5 µM
GI50 [4]: 1.29 µM
TGI [4]: > 100 µM
GI50 [5]: 3.76 µM
TGI [5]: > 100 µM
GI50 [7]: 5.13 µM
TGI [7]: > 100 µM

NNC(=O)C(=O)N/N=C(\CCC(=O)Nc1ccc(Cl)cc1)Cc1nc2ccccc2s1
TGI [8]: > 100 µM
TGI [2]: > 100 µM
TGI [9]: > 100 µM
TGI [3]: > 100 µM
TGI [4]: 77.1 µM
TGI [5]: > 100 µM
TGI [6]: > 100 µM
TGI [7]: > 100 µM

O=NN(CCCl)C(=O)NC1CCC(CC2CCC(NC(=O)N(CCCl)N=O)CC2)CC1 (configuration not stated)
TGI [8]: > 77.8 µM
TGI [1]: > 100 µM
TGI [2]: > 100 µM
TGI [9]: 47.8 µM
TGI [3]: > 100 µM
TGI [4]: 50.7 µM
TGI [5]: 44.6 µM
TGI [6]: 99.6 µM
TGI [7]: 69.9 µM

O=C(O)Cn1cc([N+](=O)[O-])c(=O)c2ccccc21
TGI [2]: > 100 µM
TGI [9]: > 100 µM
TGI [10]: 32.9 µM
TGI [3]: > 100 µM
TGI [4]: > 100 µM
TGI [6]: > 100 µM
TGI [7]: > 100 µM

O=C(O)C(Oc1nc(=S)[nH]c(=S)[nH]1)(c1ccc(Cl)cc1)c1ccc(Cl)cc1
TGI [8]: > 100 µM
TGI [1]: > 100 µM
TGI [2]: > 100 µM
TGI [9]: > 100 µM
TGI [10]: > 100 µM
TGI [3]: > 100 µM
TGI [5]: > 100 µM
TGI [6]: > 100 µM
TGI [7]: > 100 µM

COC(=O)c1nn(C(=N)c2ccc(Cl)cc2)c2c1CCC2
TGI [8]: > 100 µM
TGI [1]: > 100 µM
TGI [2]: > 100 µM
TGI [9]: > 100 µM
TGI [3]: > 100 µM
TGI [4]: > 100 µM
TGI [5]: > 100 µM
TGI [6]: > 100 µM
TGI [7]: > 100 µM

CN1C/C(=C\C=C\c2ccccc2)C(=O)/C(=C/C=C/c2ccccc2)C1
TGI [8]: > 100 µM
TGI [1]: > 100 µM
TGI [2]: > 100 µM
TGI [9]: > 100 µM
TGI [3]: > 100 µM
TGI [4]: > 100 µM
TGI [5]: > 100 µM
TGI [6]: > 100 µM
TGI [7]: > 100 µM

CCN(CC)CC(=N)N(CC)c1ccccc1
TGI [8]: > 100 µM
TGI [1]: > 100 µM
TGI [2]: > 100 µM
TGI [9]: > 100 µM
TGI [3]: > 100 µM
TGI [4]: > 100 µM
TGI [5]: > 100 µM
TGI [6]: > 100 µM
TGI [7]: > 100 µM

COc1ccc(N2C(=O)C3c4[nH]c5ccccc5c4C4CCCCC4C3C2=O)cc1 (configuration not stated)
TGI [8]: > 100 µM
TGI [1]: 23.6 µM
TGI [2]: 51.9 µM
TGI [9]: 36.9 µM
TGI [3]: > 100 µM
TGI [4]: 29.1 µM
TGI [5]: 55.6 µM
TGI [6]: > 100 µM
TGI [7]: 23.8 µM

[N-]=[N+]=C(C(=O)N1CCCC1=O)S(=O)(=O)c1ccccc1
TGI [8]: > 100 µM
TGI [2]: > 100 µM
TGI [9]: > 100 µM
TGI [10]: > 100 µM
TGI [3]: > 100 µM
TGI [4]: > 100 µM
TGI [5]: > 100 µM
TGI [6]: > 100 µM
TGI [7]: > 100 µM

CC(C)=CC(=O)Cc1nc2ccc([N+](=O)[O-])cc2[nH]c1=O
TGI [8]: > 100 µM
TGI [1]: > 100 µM
TGI [2]: > 100 µM
TGI [9]: > 100 µM
TGI [5]: > 100 µM
TGI [6]: > 100 µM
TGI [7]: > 100 µM

N#CC1C=Cc2c(ccc3ccccc23)N1C(=O)c1ccccc1 (configuration not stated)
GI50 [8]: 0.39 µM
TGI [8]: > 100 µM
GI50 [1]: 1.47 µM
TGI [1]: > 100 µM
GI50 [2]: 0.339 µM
TGI [2]: > 100 µM
GI50 [9]: 0.421 µM
TGI [9]: > 100 µM
GI50 [10]: 0.763 µM
TGI [10]: > 100 µM
GI50 [3]: 0.141 µM
TGI [3]: 3.98 µM
GI50 [4]: 0.149 µM
TGI [4]: > 69.9 µM
GI50 [6]: 0.433 µM
TGI [6]: > 100 µM
GI50 [7]: 0.909 µM
TGI [7]: > 100 µM

C[C@@H](Nc1nc(Nc2ccc(F)c(Cl)c2)nc2ccccc12)C1CC1
GI50 [8]: 1.33 µM
TGI [8]: 3.81 µM
GI50 [1]: 1.73 µM
TGI [1]: 12.9 µM
GI50 [2]: 5.64 µM
TGI [2]: 19.6 µM
GI50 [9]: 1.73 µM
TGI [9]: 5.38 µM
GI50 [10]: 2.46 µM
TGI [10]: 7.61 µM
GI50 [3]: 3.18 µM
TGI [3]: 14.1 µM
GI50 [4]: 2.25 µM
TGI [4]: 7.12 µM
GI50 [6]: 1.48 µM
TGI [6]: 9.34 µM
GI50 [7]: 1.69 µM
TGI [7]: 3.45 µM

O=C(/C=C\c1cccc2ccccc12)c1cccc2ccccc12
GI50 [8]: 2.68 µM
TGI [8]: > 100 µM
GI50 [1]: 11.3 µM
TGI [1]: 36.9 µM
TGI [2]: 36.5 µM
GI50 [9]: 2.49 µM
TGI [9]: 8.08 µM and 20.5 µM
GI50 [3]: 4.2 µM
TGI [3]: 16.5 µM
GI50 [4]: 2.28 µM
TGI [4]: 8.97 µM
GI50 [5]: 7.46 µM
TGI [5]: 20.1 µM
GI50 [6]: 2.09 µM
TGI [6]: 8.96 µM
TGI [7]: 17.4 µM

C[C@]12CCC(=O)C=C1CC[C@@H]1C2CC[C@]2(C)c3nn(-c4ccccc4)nc3CC12 (some centres not stated)
TGI [8]: > 100 µM
TGI [1]: > 100 µM
TGI [2]: > 100 µM
TGI [9]: > 100 µM
TGI [3]: > 100 µM
TGI [4]: > 100 µM
TGI [5]: > 100 µM
TGI [6]: > 100 µM
TGI [7]: > 100 µM

C/C=C(/C)C(=O)O[C@H]1[C@H](O)CC(c2ccc3c(c2O)C(O)=C2C(=O)C4(OC)C(O)=C(C(N)=O)C(=O)[C@H](CC(=O)c5ccccc5O)C4CC2[C@@]3(C)OC)O[C@@H]1C (some centres not stated)
TGI [8]: 0.557 µM and 1.76 µM
TGI [1]: 17 µM
TGI [2]: 4.6 µM and 1.52 µM
TGI [9]: 10.5 µM
TGI [10]: 1.35 µM
TGI [3]: 0.226 µM and 0.0935 µM
TGI [6]: 0.228 µM and 0.067 µM
TGI [7]: 1.43 µM and 1.35 µM

O=C1c2ccccc2C(=O)c2[nH]c(Cc3ccc(F)cc3)nc21
TGI [8]: 95.8 µM
TGI [1]: 34.9 µM
TGI [2]: 38.1 µM
TGI [9]: 71.2 µM
TGI [3]: 32.9 µM
TGI [4]: > 100 µM
TGI [5]: 30.2 µM
TGI [7]: 43.8 µM

CC1(C)C(=O)/C(=C\c2cccnc2)C[C@]2(C)[C@H]3CC[C@@H]4[C@@H](C(=O)/C=C/c5ccncc5)CC[C@@]4(C)[C@]3(C)CC[C@@H]12
GI50 [8]: 1.21 µM
TGI [8]: 5.43 µM
GI50 [1]: 2.55 µM
TGI [1]: 9.89 µM
GI50 [2]: 2.62 µM
TGI [2]: 10.7 µM
GI50 [9]: 2.78 µM
TGI [9]: 10.4 µM
GI50 [10]: 2.96 µM
TGI [10]: 9.94 µM
GI50 [3]: 1.72 µM
TGI [3]: 3.56 µM
GI50 [4]: 1.79 µM
TGI [4]: 8.53 µM
GI50 [5]: 1.72 µM
TGI [5]: 3.18 µM
GI50 [7]: 1.85 µM
TGI [7]: 3.41 µM

Source: PubChem BioAssay (NCI)
